Reference: PubChem BioAssay (NCI)
“And” between values parts separate entries of the source, which are not always exact repeats. Equal values may be shown once.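 All cell lines were grown in 96-well plates and treated with compound for 48 hours. Abbreviation: GI50, concentration required for 50% inhibition of growth. TGI: concentration producing complete growth inhibition.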

Columns and labels:
Test in all cases: NCI anticancer screen, dose series, 48 h
[1] = system: OVCAR-3 ovarian
[2] = system: ACHN renal
[3] = system: MOLT-4 leukemia
[4] = system: SNB-75 CNS
[5] = system: SK-MEL-28 melanoma
[6] = system: SK-MEL-5 melanoma
[7] = system: SF-539 CNS
[8] = system: EKVX NSCLC
[9] = system: MDA-MB-435
[10] = system: BT-549 breast

`c1ccc(SC23C4C5C6C4C2C6C53)nc1` (centres undefined) showed a TGI [1] of over 100 µM, a TGI [2] of over 100 µM and a TGI [3] of over 100 µM. The TGI [4] was over 100 µM, the TGI [5] was over 100 µM and the TGI [6] was over 100 µM. It also gave a TGI [7] of over 100 µM and a TGI [8] of over 100 µM.

With `CC1(C)OC(=O)C(C#N)=C1C[n+]1ccccc1` the TGI [1] was over 10 µM, the TGI [2] was over 10 µM and the TGI [3] was over 10 µM. It also gave a TGI [4] of over 10 µM, a TGI [9] of over 10 µM and a TGI [5] of over 10 µM. The TGI [6] was over 10 µM, the TGI [7] was over 10 µM and the TGI [8] was over 10 µM.

`CCOC(=O)C1=C(C)N(NC(N)=O)C2(N)N(NC(N)=O)C(C)=C(C(=O)OCC)C12C(=O)OCC` (centres undefined) was tested, and the TGI [1] was over 100 µM, the TGI [2] was over 100 µM and the TGI [3] was over 100 µM. For the same molecule, the TGI [4] was over 100 µM, the TGI [5] was over 100 µM and the TGI [6] was over 100 µM. The TGI [7] was over 100 µM and the TGI [8] was over 100 µM.

In the case of `COc1ccc2oc(-c3ccc(OC)c(OC)c3OC)cc(=O)c2c1`, the TGI [1] is reported as over 100 µM, the TGI [2] is reported as over 100 µM and the TGI [4] is reported as over 100 µM. The TGI [5] was over 100 µM, the TGI [7] was over 100 µM and the TGI [8] was over 100 µM.

Molecule `COC1=CC(c2ccc[nH]2)=N/C1=C\c1[nH]c(C)c(CC(=O)OCc2ccccc2)c1C` has a GI50 [1] of 0.31 µM, a TGI [1] of 1.41 µM and a GI50 [2] of 0.296 µM. For the same molecule, the TGI [2] was 0.886 µM, the GI50 [3] was 0.23 µM and the TGI [3] was 1.27 µM. It also gave a GI50 [4] of 0.217 µM, a TGI [4] of 0.777 µM and a GI50 [9] of 0.369 µM. For the same molecule, the TGI [9] was 1.42 µM, the GI50 [10] was 0.432 µM and the TGI [10] was 3.08 µM. It also gave a GI50 [8] of 0.351 µM and a TGI [8] of 2.06 µM.

In the case of `COc1cc(C(C)c2cc3c(cc2OCCNC(=O)COc2cc4c(cc2C(C)c2cc(OC)c(OC)c(OC)c2)OCO4)OCO3)cc(OC)c1OC` (centres undefined), the TGI [1] is reported as over 100 µM, the TGI [2] is reported as over 100 µM and the TGI [3] is reported as 71.8 µM. The TGI [4] was over 100 µM, the TGI [5] was over 100 µM and the TGI [6] was over 100 µM. It also gave a TGI [7] of over 100 µM and a TGI [8] of over 100 µM.

Molecule `CCCCc1c2cnccc2c(CCCC)c2c1[nH]c1ccccc12` has a TGI [1] of 19.6 µM, a TGI [2] of 30.6 µM and a TGI [3] of 23.7 µM. It also gave a TGI [4] of 23.6 µM, a TGI [5] of 21.7 µM and a TGI [7] of 12.6 µM. For the same molecule, the TGI [8] was 36 µM.

`O=C1CNC(=O)c2[nH]cnc2N1` gave a TGI [1] of over 100 µM, a TGI [2] of over 100 µM and a TGI [3] of over 100 µM. For the same molecule, the TGI [4] was over 100 µM, the TGI [5] was over 100 µM and the TGI [6] was over 100 µM. The TGI [7] was over 100 µM and the TGI [8] was over 100 µM.

`CCn1c2c(c3ccccc31)[C@@H](c1ccc(Cl)cc1)CC1C(=O)N(c3ccccc3)C(=O)C21` (some centres undefined) was tested, and the TGI [1] was over 100 µM, the TGI [2] was over 100 µM and the TGI [3] was over 100 µM. The TGI [4] was over 100 µM, the TGI [5] was over 100 µM and the TGI [6] was over 100 µM. The TGI [7] was 97.1 µM and the TGI [8] was over 100 µM.

`CO[C@H]1C[C@](C)(O)Cc2cc3c(c(O)c21)C(=O)c1c(O)cc2c(c1C3=O)O[C@@H]1O[C@@]2(C)[C@H](O)[C@@H](N(C)C)[C@@H]1O` was tested, and the GI50 [1] was 1.92 µM, the TGI [1] was 4.03 µM and 8.09 µM and the GI50 [2] was 0.107 µM. For the same molecule, the TGI [2] was 1.31 µM and 1.9 µM, the GI50 [3] was 0.0296 µM and 0.0271 µM and the TGI [3] was 0.186 µM and 0.664 µM. For the same molecule, the TGI [9] was 5.23 µM, the GI50 [5] was 1.62 µM and the TGI [5] was 3.35 µM and 19.4 µM. The TGI [6] was 3.17 µM and 10.2 µM, the TGI [10] was 7.3 µM and the TGI [7] was 2.3 µM and 2.89 µM. The GI50 [8] was 2.4 µM and the TGI [8] was 6.5 µM and 13 µM.

Work on `O=C(Nc1ccccc1-c1nn(CN2CCNCC2)c(=S)n(CN2CCNCC2)c1=O)C(F)(F)F` yielded a TGI [1] of 49.9 µM, a TGI [2] of 63.9 µM and a TGI [3] of over 100 µM. It also gave a TGI [4] of 52.9 µM, a TGI [5] of 33.2 µM and a TGI [6] of 31 µM. It also gave a TGI [7] of 35.3 µM and a TGI [8] of 32.2 µM.

Work on `Cc1ccc(S(=O)(=O)c2ccc(C)cc2[N+](=O)[O-])cc1` yielded a TGI [1] of over 100 µM, a TGI [2] of over 100 µM and a TGI [3] of over 100 µM. The TGI [4] was over 100 µM, the TGI [5] was over 100 µM and the TGI [6] was 76.8 µM. The TGI [7] was over 100 µM and the TGI [8] was over 100 µM.

Work on `Cc1[nH]c(N)nc(=S)c1CCC(=O)O` yielded a TGI [1] of over 100 µM, a TGI [2] of over 100 µM and a TGI [3] of over 100 µM. The TGI [9] was over 100 µM, the TGI [5] was over 100 µM and the TGI [6] was over 100 µM. The TGI [10] was over 100 µM, the TGI [7] was over 100 µM and the TGI [8] was over 100 µM.

`CCOC(=O)C12C(C(=O)OC)=C(C)N(NC(=O)Nc3ccccc3)C1(N)N(NC(=O)Nc1ccccc1)C(C)=C2C(=O)OC` (centres undefined) was tested, and the TGI [1] was 60.2 µM, the TGI [2] was over 100 µM and the TGI [3] was 46.7 µM. It also gave a TGI [4] of over 100 µM, a TGI [5] of over 88.7 µM and a TGI [6] of 39.3 µM. The TGI [7] was 37.9 µM and the TGI [8] was over 100 µM.

Molecule `COc1ccc2c(c1)NC1(O)c3ccccc3C(=O)C21O` (centres undefined) has a TGI [1] of over 100 µM, a TGI [2] of over 100 µM and a TGI [3] of over 100 µM. It also gave a TGI [4] of over 100 µM, a TGI [5] of over 100 µM and a TGI [6] of over 100 µM. It also gave a TGI [7] of over 100 µM.

With `CC(=O)OC12c3ccccc3-c3ccccc3C1C(C(=O)O)C2C(=O)O` (centres undefined) the TGI [1] was over 10 µM, the TGI [2] was over 10 µM and the TGI [3] was over 10 µM. For the same molecule, the TGI [9] was over 10 µM, the TGI [5] was over 10 µM and the TGI [6] was over 10 µM. The TGI [7] was over 10 µM and the TGI [8] was over 10 µM.

Work on `CCCN(CCC)C(=O)c1nc(N)nc(-c2ccc(OC)cc2)c1-c1ccc(OC)cc1` yielded a TGI [1] of over 100 µM, a TGI [2] of over 100 µM and a TGI [3] of over 100 µM. It also gave a TGI [4] of over 100 µM, a TGI [5] of over 100 µM and a TGI [6] of over 100 µM. The TGI [7] was over 100 µM and the TGI [8] was over 100 µM.

Work on `C/C(CC(=O)Nc1ccccc1C)=N/NS(=O)(=O)c1ccc(C)cc1` yielded a TGI [1] of over 100 µM, a TGI [2] of over 100 µM and a TGI [3] of over 100 µM. For the same molecule, the TGI [4] was over 100 µM, the TGI [5] was over 100 µM and the TGI [6] was over 100 µM. For the same molecule, the TGI [7] was over 100 µM and the TGI [8] was over 100 µM.

`COC1CCC(OC)C(C2(C3CC(OC)CCC3OC)OC(=O)c3ccccc32)C1` (centres undefined) was tested, and the TGI [1] was over 100 µM, the TGI [2] was over 100 µM and the TGI [3] was 89.3 µM. The TGI [4] was over 100 µM, the TGI [6] was over 100 µM and the TGI [7] was over 100 µM. The TGI [8] was over 100 µM.

With `COc1cc2c(cc1OC)C1Cc3ccc(OC)c(OC)c3C[N+]1([O-])CC2` (centres undefined) the TGI [1] was over 100 µM, the TGI [2] was over 100 µM and the TGI [3] was over 100 µM. The TGI [4] was over 100 µM, the TGI [5] was over 100 µM and the TGI [6] was over 100 µM. The TGI [7] was over 100 µM and the TGI [8] was over 100 µM.

Molecule `Cc1cccc(C)c1N1C(=O)C(=O)C(c2nc3ccccc3s2)/C(=N/NC(=O)c2ccccc2O)C1=O` (centres undefined) has a TGI [1] of over 100 µM, a TGI [2] of over 89.4 µM and a TGI [3] of over 100 µM. For the same molecule, the TGI [4] was 69.5 µM, the TGI [5] was over 83.1 µM and the TGI [6] was over 53.7 µM. For the same molecule, the TGI [7] was 59.5 µM and the TGI [8] was over 100 µM.

Work on `COC(=O)C(CC(=O)Nc1ccc(Cl)c(Cl)c1)C(=O)C(=O)Nc1ccc(Cl)c(Cl)c1` (centres undefined) yielded a TGI [1] of over 100 µM, a TGI [2] of over 100 µM and a TGI [3] of over 100 µM. The TGI [4] was over 100 µM, the TGI [5] was over 100 µM and the TGI [6] was over 100 µM. The TGI [7] was over 100 µM and the TGI [8] was over 100 µM.

With `NC(=O)c1cccc(OCC(O)CO)c1` (centres undefined) the TGI [1] was over 100 µM, the TGI [2] was over 100 µM and the TGI [3] was over 100 µM. It also gave a TGI [4] of over 100 µM, a TGI [5] of over 100 µM and a TGI [6] of over 100 µM. It also gave a TGI [10] of over 100 µM, a TGI [7] of over 100 µM and a TGI [8] of over 100 µM.
